From US20050256034A1, “Dioxolane analogs for improved inter-cellular delivery” (priority 2000, published 2005)

Legend:
Assay type in all cases: cell-based
CEM cells (es, hENT1) = assay: Cellular uptake assay of 3H-labelled nucleoside; conditions: 30 μM, 6-min time course, compared with uridine
Procedure: (§1) FIG. 1 Comparative uptake of 30 μM [^3H]-troxacitabine in CEM (Panel A) and CEM/APAC8C (Panel B) cells. [^3H]-Uridine uptake in either the presence or absence of the hENT1 inhibitor, NBMPR or 5 mM non-radioactive uridine was included for comparison as a control substrate.
(§2) Cancer Res., 56: 4187-4191.
(§3) The transport of [^3H]uridine was inhibited in the presence either of the hENT1 inhibitor, NBMPR, or excess non-radioactive uridine.

CEM/ARAC8C cells = assay: Cellular uptake assay of 3H-labelled nucleoside; conditions: 30 μM, 6-min time course, compared with uridine
Procedure: as §1, §2, §3

hCNT3 = target: T1, hCNT3 (Homo sapiens, UniProt Q9HAS3); assay: Inhibition of [3H]uridine uptake by cib-activity in differentiated HL-60 cells; conditions: 100-fold non-radioactive excess
T1 construct: Troxacitabine uptake by cib-activity (hCNT3) in differentiated HL-60 cells; endogenous in cells; host or cells: differentiated HL-60 cells
T1 sequence (Q9HAS3 1-691): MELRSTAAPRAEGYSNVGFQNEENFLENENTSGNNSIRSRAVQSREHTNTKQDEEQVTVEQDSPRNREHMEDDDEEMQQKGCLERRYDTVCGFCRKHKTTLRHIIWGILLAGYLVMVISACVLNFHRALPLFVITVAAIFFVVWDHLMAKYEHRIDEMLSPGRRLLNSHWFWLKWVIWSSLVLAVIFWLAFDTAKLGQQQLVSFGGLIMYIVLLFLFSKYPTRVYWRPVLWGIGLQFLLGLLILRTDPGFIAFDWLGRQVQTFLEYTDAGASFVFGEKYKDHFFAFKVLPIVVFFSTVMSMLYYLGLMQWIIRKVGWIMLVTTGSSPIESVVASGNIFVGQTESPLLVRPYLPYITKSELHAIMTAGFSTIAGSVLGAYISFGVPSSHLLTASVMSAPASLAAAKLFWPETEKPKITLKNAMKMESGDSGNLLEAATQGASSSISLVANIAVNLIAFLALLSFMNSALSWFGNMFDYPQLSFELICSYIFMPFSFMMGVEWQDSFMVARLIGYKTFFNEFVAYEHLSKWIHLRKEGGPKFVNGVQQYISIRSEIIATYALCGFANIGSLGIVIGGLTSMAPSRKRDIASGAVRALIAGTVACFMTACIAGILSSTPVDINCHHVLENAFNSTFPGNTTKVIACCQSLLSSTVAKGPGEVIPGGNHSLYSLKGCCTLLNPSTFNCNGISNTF

## Nc1ccn([C@@H]2CO[C@H](CO)O2)c(=O)n1 [Troxacitabine, troxacitabine]
CEM cells (es, hENT1)
  uptake of 3H-labelled nucleoside: taken up to a lesser degree
CEM/ARAC8C cells
  uptake of 3H-labelled nucleoside: taken up to a lesser degree
hCNT3
  effect on [3H]uridine uptake by hCNT3: no effect on uridine uptake
